Laboratory results published in patent publication US20100210533A1, “USE OF UROCORTIN AND CORTICOTROPIN-RELEASING FACTOR AS THERAPEUTIC AGENTS” (priority 2007, published 2010).
No end group written: not given here.

What was measured:
HCMV strain AD169 = assay: HCMV plaque assay in MRC-5 cells; details: for inhibition of HCMV plaque formation as compared to the virus control experiment: 10 micrograms per ml, 7-10 days
[1] = test system: hepatitis B virus (HBV) ayw strain; assay: HBV experimental assay system, HepG2-2.2.15, TaqMan PCR of secreted HBV DNA; type: cell-based; details: 10 micrograms per ml, six days, HBV DNA by TaqMan PCR
Text: HepG2-2.2.15 is a stable cell line containing the hepatitis B virus (HBV) ayw strain genome (ATCC Cat. No. CRL-11997). Antiviral compounds blocking any late step of viral replication such as transcription, translation, pregenome encapsidation, reverse transcription, particle assembly and release can be identified and characterized using this cell line. In this assay, an active compound will reduce the production of secreted HBV from cells, measured by utilizing real time quantitative PCR (TaqMan) assay to directly and accurately measure HBV DNA copies.
HepG2-2.2.15 cells were plated in 96-well microtiter plates. After 16-24 hours the confluent monolayer of HepG2-2.2.15 cells was washed and the medium was replaced with complete medium containing test peptides—10 micrograms per ml—in duplicate. […] Six days following the initial administration of the peptides, the cell culture supernatants was collected, treated with pronase and DNAse and then used in a real-time quantitative TaqMan PCR assay. The PCR-amplified HBV DNA was detected in real-time by monitoring increases in fluorescence signals that result from the exonucleolytic degradation of a quenched fluorescence probe molecule that hybridizes to the mplified HBV DNA. […] Antiviral activity was calculated from the reduction in HBV DNA levels (% virus control). […]

RAW 264.7 cells = assay: Phagocytosis assay (Fluorescein-labeled Escherichia coli, flow cytometry); type: cell-based, mouse; details: 10 micrograms per ml, 30 min preincubation, 60 min ingestion
spleen cells = assay: Th1/Th2 cytokine profiling assay (Ovalbumin-restimulated spleen cells, CBA kit); type: cell-based; details: 10 micrograms per ml; spleen cells of Ovalbumin-immunized Balb/c mice, restimulated with Ovalbumin 10 micrograms/ml; 72 hours
[2] = test system: Primary Human endothelial cells (HUVEC); assay: Endothelial cell migration assay; type: cell-based; details: 10 micrograms per ml, 22 hours
HIV-1IIIB = assay: HIV-1 antiviral assay in CEM-SS cells (MTS readout); type: cell-based

| Molecule | antiviral activity of positive control compound (HCMV) (HCMV strain AD169; positive control, HCMV AD169) | inhibition of HBV replication as compared to the virus control infection [1] | effect (increase) on the phagocytic activity of murine macrophages (RAW 264.7 cells) | IFNγ spleen cells; TH1 response (% of control) (spleen cells) | IL-2 spleen cells (% of control) (spleen cells) | IL-4 spleen cells; TH2 response (% of control) (spleen cells) | IL-5 spleen cells; TH2 response (% of control) (spleen cells) | TNF-a spleen cells; TH1 response (% of control) (spleen cells) | inhibition of the tube formation of human endothelial cells (results given under Example 14, Endothelial Cell Migration Assay) [2] | inhibition of HCMV plaque formation as compared to the virus control experiment (HCMV strain AD169) | antiviral activity of positive control compounds (HIV-1) (HIV-1IIIB) |
| --- | --- | --- | --- | --- | --- | --- | --- | --- | --- | --- | --- |
| Nc1nc(O)c2ncn(COC(CO)CO)c2n1 [Ganciclovir, reference compound] | expected levels of antiviral activity | – | – | – | – | – | – | – | – | – | – |
| Ser-Glu-Glu-Pro-Pro-Ile-Ser-Leu-Asp-Leu-Thr-Phe-His-Leu-Leu-Arg-Glu-Val-Leu-Glu-Met-Ala-Arg-Ala-Glu-Gln-Leu-Ala-Gln-Gln-Ala-His-Ser-Asn- Arg-Lys-Leu-Met-Glu-Ile-Ile-NH2 (SEEPPISLDLTFHLLREVLEMARAEQLAQQAHSNRKLMEII-NH2) [Peptide 2] | – | 57.2% | 34.3% | 144.1 % of control | 166.5 % of control | 178.1 % of control | 7.0 % of control | 138.1 % of control | did not inhibit | did not inhibit | – |
| Cc1cn([C@H]2C[C@H](N=[N+]=[N-])[C@@H](CO)O2)c(=O)[nH]c1=O [AZT] | – | – | – | – | – | – | – | – | – | – | expected levels of antiviral activity |
| Asp-Asn-Pro-Ser-Leu-Ser-Ile-Asp-Leu-Thr-Phe-His-Leu-Leu-Arg-Thr-Leu-Leu-Glu-Leu-Ala-Arg-Thr-Gln-Ser-Gln-Arg-Glu-Arg-Ala-Glu-Gln-Asn-Arg- Ile-Ile-Phe-Asp-Ser-Val-NH2 (DNPSLSIDLTFHLLRTLLELARTQSQRERAEQNRIIFDSV-NH2) [Peptide 1] | – | 63.0% | no inhibitory or activating effects | 29.0 % of control | 168.1 % of control | 111.6 % of control | 68.0 % of control | 84.8 % of control | 39% | did not inhibit | – |
| CC(C)(C)NC(=O)[C@@H]1CN(Cc2cccnc2)CCN1C[C@@H](O)C[C@@H](Cc1ccccc1)C(=O)N[C@H]1c2ccccc2C[C@H]1O [indinavir] | – | – | – | – | – | – | – | – | – | – | expected levels of antiviral activity |
